Where two headings read alike, the source gives them in different places.
Test system: Pyricularia oryzae
Assay type: in vivo
Settings: rice seedlings cultivar Tai-Nong 67, protective, inoculated next day, assessed after six days

Compound	Efficacy in % of the untreated control (1 ppm active compound in the spray liquor) [%]	Efficacy in % of the untreated control (16 ppm active compound in the spray liquor) [%]	Efficacy in % of the untreated control (4 ppm active compound in the spray liquor) [%]
O=C(Nc1ccccc1)N(Cc1ccc(Cl)cc1)C1CCCC1 [compound II, 1-(4-chlorobenzyl)-1-cyclopentyl-3-phenylurea]	0	0	
CC1CCN(c2c(-c3c(F)cc(F)cc3F)c(Cl)nc3ncnn23)CC1 [compound I, 5-chloro-7-(4-methylpiperidin-1-yl)-6-(2,4,6-trifluorophenyl)-[1,2,4]triazolo[1,5-a]pyrimidine]			31
